Where a SMILES comes first, the peptide text is derived from it.

The term pKa denotes the pH at which an ionisable group is half protonated. A lower pKa goes with a group that gives up its proton readily. In the case of `O=S(=O)(Nc1ccc(Cl)cc1)C(F)(F)F`, for the setting “acidic group”, the pKa is 3.9.

Under “basic group”, `Cc1ccc(C(C)C)c(OCCN(C)C)c1` displayed a pKa of 8.66. Turning to `CCN(CC)CCNc1cc(Nc2ccc(Cl)cc2)nc(C)n1`, under “basic group”, the pKa is 9.3. For the molecule `NS(=O)(=O)c1nccs1`, where the note is “acidic group”, the pKa was 8.25. The molecule `[NH3+]CCCCCCC(=O)O` came in with a pKa (acidic group) of 4.44.

For `CNOC`, the pKa (basic group) is 4.75. The same measure, in the same setting: then `N=C(Nc1ccccc1)Nc1ccccc1`, with 9.94. The molecule `COc1ccc(S(=O)(=O)Nc2ccccc2)cc1` showed a pKa (acidic group) of 8.66.

The molecule `CO[C@H]1C=CC2=CCN3CCC(CO)=C(CCO)[C@]23C1` had a pKa (basic group) of 7.8. With `NS(=O)(=O)c1ccc(C(=O)O)cc1`, the pKa (acidic group) stood at 3.53. `CCCN(CCC)CCc1c[nH]c2ccccc12`: where the note is “basic group”, the pKa turned out to be 8.6. Still for that read-out and setting: then `C=CCN(CC=C)CCOC(=O)C(=C)C`, with 7.02. In turn, `CCOC(=O)c1cnc2ccc([N+](=O)[O-])cc2c1[O-]` registered a pKa (basic group) of 8.

Consider `O=C(CN1CCOCC1)c1ccccc1`, for which the pKa (basic group) worked out at 5.97. Consider `COc1ccc(O)c(/N=N/c2nc(C)cs2)c1`, for which the pKa is, setting by setting: (acidic group) 7.98; (basic group) 0.77.

`Cc1ccc2c(c1)ncn2[C@H]1O[C@@H](CO)[C@H](O)[C@@H](O)[C@@H]1O`: the pKa (basic group) is 4.32. On the same count and under the same terms, then `CCCCNCC(=O)[O-]`, with 10.2. Molecule `CN(C)c1ccc(SC#N)cc1` returned a pKa (basic group) of 3.3. The same measure, in the same setting: then `NCC(N)C[NH3+]`, with 7.95; and `[O-]c1ncc2ccccc2n1`, with 10.7.

Turning to `O=C1CSC(=S)N1`, the pKa (acidic group) was 6.48.

On to `S=C1NC(=S)C(c2ccccc2)N1` (stereo not given), for which the pKa by setting is: (acidic group) 8.15; (basic group) -3.16.

For the setting “basic group”, `CCOc1cccc(C(=O)N[C@@H]2C[C@H]3CC[C@@H](C2)N3Cc2ccccc2)c1OC` showed a pKa of 8.78. As for `C[C@H]([NH3+])CCC(=O)O`, the pKa (acidic group) is 4.13. Still for that read-out and setting: then `Cc1cccc(Cl)c1C(=O)O`, with 2.59.

`N#CS` displayed a pKa (acidic group) of 0.85. On the same count and under the same terms, then `Oc1ccc(Cl)c2ccccc12`, with 8.64; and `O=P1(O)CCC1`, with 3.07; and `Oc1ccc[nH+]c1`, with 5.01. In turn, `CC(C)(C)NCCO` gave a pKa (basic group) of 10.1.

Molecule `Nc1ncc([N+](=O)[O-])cn1` yielded a pKa (acidic group) of 14.7. For `CC([Se-])CN` (stereo not given), the pKa (basic group) was 10.8. With `O=C(Cc1cccnc1)c1ccccc1`, the pKa came to 13.7 (acidic group) and 4.87 (basic group). With `CCNC[Si](C)(C)C`, the pKa (basic group) is 11.1.

Molecule `Cn1cnc2nc(N)nc([O-])c21` had a pKa (basic group) of 8.43.

On to `OC[C@@H]1O[C@H](n2cnc3c2ncn2ccnc32)[C@@H](O)[C@H]1O`, for which the pKa (basic group) was 4.1. As for `C[S+](C)CC(=O)c1ccc([N+](=O)[O-])cc1`, under “acidic group”, the pKa was 6.7. Regarding `Cc1ccc(C(=O)O)cc1Cl`, the pKa (acidic group) was 4.06. As to `CC(C)N1CCC(NN)CC1`, the pKa (basic group) came to 9.65. Where the note is “acidic group”, `CC1CCC[C@H](C(C)C(=O)O)C1` (stereo not given in full) gave a pKa of 4.59. For the setting “basic group”, `CCN(CC)CC(O)CN(CC)CC` came in with a pKa of 9.8. Take `CCCCN(CCCC)c1ccccc1`: the pKa (basic group) came to 6.41. The same measure, in the same setting: then `CCCCN/C(C)=N/N(C)C`, with 10.4; and `c1ccc(Oc2cccnc2)cc1`, with 4.24.

`c1ccc([P+](c2ccccc2)(c2ccccc2)C2c3ccccc3-c3ccccc32)cc1`: the pKa (acidic group) is 8.99. As for `CN1CCCCCN1C`, the pKa (basic group) was 6.66.

`Cc1cccc(C)c1NC(=O)CN(C)C` yielded a pKa (basic group) of 7.36. Still for that read-out and setting: then `COc1ccc([N+](=O)[O-])cc1C(=O)N[C@@H]1C[C@H]2CC[C@@H](C1)N2Cc1ccccc1`, with 8.7. The molecule `CCC(C)C[C@H]([NH3+])C(=O)O` (stereo not given in full) showed a pKa (acidic group) of 3.25. The molecule `CCOc1ccc(N)cc1` registered a pKa (basic group) of 5.25. On to `C/C(=N/O)c1ccccc1`, for which the pKa (acidic group) amounted to 11.5. `C=C(C)C(=O)OC(C)CN(C)C` (stereo not given) displayed a pKa (basic group) of 7.96. As to `COc1ncnc2nc[nH]c12`, the pKa is 9.16 (acidic group) and 2.21 (basic group). `Nc1ccccc1C(=O)[O-]`: the pKa (basic group) turned out to be 4.87. Same read-out and setting: then `CCCCNCCC(=O)[O-]`, with 10.6. On to `OC(c1ccccc1)c1ccccn1` (stereo not given), for which the pKa is 12.8 (acidic group) and 4.44 (basic group). For the molecule `[NH3+]C1(C(=O)O)CCCCC1`, the pKa (acidic group) was 2.66. `N/N=C/c1ncnc2nc[nH]c12` returned a pKa (basic group) of 9.2. `CC/C=C/CC1=[NH+]C(C(=O)O)[C@@H]2SC(C)(C)C(C(=O)O)N12` (stereo not given in full): the pKa (acidic group) worked out at 2.4. For the molecule `CC(C)CSCCN`, for the setting “basic group”, the pKa is 8.73.

Molecule `Nc1c2[n-]cnc2nc[n+]1[O-]` gave a pKa (acidic group) of 13.

For the molecule `Oc1ccc(O)c2ncccc12`, the pKa is, setting by setting: (acidic group) 9.3; (basic group) 4.5. Molecule `Cc1ccc(O)c([O-])c1` displayed a pKa (acidic group) of 13.3.

Consider `CCCCP(=O)(O)CCCC`, for which the pKa (acidic group) is 3.22. For the setting “basic group”, `CN(C)CCC/N=C(\c1ccccc1)c1ccccc1Cl` returned a pKa of 9.

Molecule `C/C=C\C=C/C(=O)O` came in with a pKa (acidic group) of 4.51. Under “basic group”, `Cn1cccnc1=N` registered a pKa of 10.8.

`Clc1cccc(-c2nnn[nH]2)c1` returned a pKa (acidic group) of 3.61. In the case of `CC(C)NCCCCCCNC(C)C`, the pKa (basic group) is 11.2. Under “basic group”, `C1CNCCNCCN1` came in with a pKa of 10.6. In turn, `CCNc1cccc2ccccc12` showed a pKa (basic group) of 4.19.

Molecule `CCCCc1c(O)nc(NCC)[nH+]c1C` registered a pKa (acidic group) of 5.04.

For `Brc1ccc2c(c1)C([P+](c1ccccc1)(c1ccccc1)c1ccccc1)c1ccccc1-2` (stereo not given), the pKa (acidic group) is 7.33. As for `Oc1ccc(F)cc1CN1CCOCC1`, the pKa (acidic group) turned out to be 10.5 and the pKa (basic group) is 6.78.

As to `Nc1ccncc1N`, the pKa (basic group) stood at 9.06.

On to `CC(C)(CN)CN`, for which the pKa (basic group) was found to be 10.2.

`CC(C)C[C@H](N)C(=O)N[C@@H](Cc1c[nH]cn1)C(=O)[O-]` (H-Leu-His-OH) displayed a pKa (basic group) of 7.78.

The molecule `N#CC(C#N)=C(C(C#N)C#N)C(C#N)C#N` gave a pKa (acidic group) of 2.25. Still for that read-out and setting: then `C[N+]1(CC(=O)O)CCCCC1`, with 2.01.

`Nc1cc(-c2ccccc2)nc2ccccc12`: where the note is “basic group”, the pKa turned out to be 8.2. `O=C(O)c1cccc(/C=C/[N+](=O)[O-])c1` registered a pKa (acidic group) of 3.9. Still for that read-out and setting: then `CCOc1cccc(C(=O)O)c1C`, with 3.73.

Regarding `O=C1COC(=O)C1`, the pKa (acidic group) was found to be 3.76. Under “basic group”, `Cc1ccccc1-n1nnnc1N` yielded a pKa of 1.23.

`[S-]c1ccnc([S-])n1` showed a pKa (basic group) of 11.2. Molecule `O=C(O)c1csc(Cl)c1` gave a pKa (acidic group) of 3.8. `[NH3+]CC/C=C/C(=O)O` came in with a pKa (acidic group) of 3.83. In the case of `Cc1c(Br)cc(N)cc1Br`, the pKa (basic group) was determined as 2.87. Same read-out and setting: then `COc1cc(C)n(-c2ccccc2)n1`, with 1.5.

Regarding `O=C([O-])/C=C\C(=O)NOCc1ccccc1`, the pKa (acidic group) turned out to be 10.

For `Oc1cncnc1`, the pKa is 6.78 (acidic group) and 1.87 (basic group). Turning to `CC(=O)CC(=S)Nc1ccccc1`, the pKa (acidic group) is 7.5.

Turning to `O=C1CCC(C(=O)O)N1` (stereo not given), the pKa (acidic group) was 3.25. On the same count and under the same terms, then `CCc1cc(C(=O)O)cs1`, with 4.19.

As to `c1ccc(Cc2cc(-c3ccccc3)nnc2NCCN2CCOCC2)cc1`, the pKa (basic group) worked out at 6.95. In turn, `N[C@H]1C[C@@H]1[NH3+]` returned a pKa (basic group) of 5.9.

Take `N#CC(CCN1CCOCC1)(c1ccccc1)c1ccccc1`: where the note is “basic group”, the pKa came to 6.09. This pKa and that of the molecule before are within 0.2 log units of each other.

Regarding `COc1cccc2cccnc12`, under “basic group”, the pKa was determined as 4.88.

As for `COc1cc(S(C)=O)ccc1-c1cn2ccncc2n1` (stereo not given), under “basic group”, the pKa came to 2.88.

As to `CSCc1ccccn1`, the pKa (basic group) turned out to be 5.4. The molecule `Nc1ccccc1S(N)(=O)=O` yielded a pKa (basic group) of 1.

On to `c1ccc(CNc2ncnc3[nH]cnc23)cc1`, for which, where the note is “basic group”, the pKa turned out to be 4.09.

Regarding `Cc1cc(C(=O)O)ccc1O`, the pKa (acidic group) is 4.68. On to `Oc1ccc(F)cc1`, for which the pKa (acidic group) stood at 9.88. Turning to `CCCCCCCCCCCCCCCCN(CC(O)CC)CC(O)CC` (stereo not given), the pKa (basic group) came to 5.6. As for `NC(=O)C(N)CC(=O)O` (stereo not given), under “acidic group”, the pKa worked out at 7.95. Molecule `N#Cc1ccc(CN)cc1` displayed a pKa (basic group) of 8.72. For the molecule `COC(=O)C1c2ccccc2-c2ccccc21`, the pKa (acidic group) turned out to be 11.5. Same read-out and setting: then `Oc1ccc2c(c1)CCC2`, with 10.3. Turning to `[NH3+]Cc1cccnc1`, the pKa (basic group) was found to be 3.71. `Cc1cc2nccc(NCCC[NH+](C)C)c2cc1[N+](=O)[O-]` yielded a pKa (basic group) of 7.38. As for `Oc1cccc2cncnc12`, the pKa runs as follows: (acidic group) 8.65; (basic group) 3.41.

`Cc1ccc(CNCC[NH3+])cc1`: under “basic group”, the pKa came out at 6.51. Molecule `CCc1cc(Cl)c(O)c(C(=O)NC[C@H]2CCC[NH+]2CC)c1OC` showed a pKa (acidic group) of 6.91. Same read-out and setting: then `NC(=O)C(CCC(=O)O)c1ccccc1` (stereo not given), with 4.64.

For `C[Si](C)(C)CCCCCC(=O)O`, the pKa (acidic group) came out at 5.06. Turning to `Nc1cc(Cl)cc(C[NH3+])c1`, the pKa (basic group) was determined as 3.54.

On to `O=C(O)[C@H](O)c1ccccc1[N+](=O)[O-]`, for which the pKa (acidic group) was 3.15. Regarding `C#CCN`, the pKa (basic group) is 8.19. Still for that read-out and setting: then `Nc1nc(NCCO)nc(NCCO)n1`, with 5.18. `CNc1ccc(S(=O)(=O)Nc2nc(C)cs2)cc1` gave a pKa (acidic group) of 6.63. Take `Cc1ccc2ccc(C)nc2c1`: where the note is “basic group”, the pKa amounted to 5.01. Molecule `Cc1ccc(C(=O)NS(=O)(=O)c2ccc(N)cc2)cc1C` showed a pKa (acidic group) of 4.66. `c1c[nH]c(Cc2nc(Cc3c[nH]cn3)c[nH]2)n1` had a pKa (basic group) of 7.26. The same measure, in the same setting: then `COc1ccc(NCO)cc1`, with 3.72. Molecule `O=C(O)CC(O)c1ccccc1` (stereo not given) showed a pKa (acidic group) of 4.4. For the setting “basic group”, `OC[C@@H]1O[C@H](n2cnc3c([S-])ncnc32)[C@@H](O)[C@H]1O` registered a pKa of 7.63. Turning to `Nc1nc(O)[n+]([C@@H]2C[C@@H](O)[C@H](CO)O2)cc1CO`, the pKa (acidic group) turned out to be 3.55. Same read-out and setting: then `Cc1cc(S(=O)(=O)N(CCO)CCO)cc(C)c1O`, with 8.25. Still for that read-out and setting: then `O=c1[nH]c(=S)[nH]c2nc[nH]c12`, with 5.88. In the case of `CC(CC(O)(c1ccccc1)c1ccccc1)N1CCCCC1` (stereo not given), under “basic group”, the pKa was 8.62. Regarding `FC(F)(F)c1nc2ncncc2[nH]1`, the pKa is 5.12 (acidic group) and 1 (basic group). Molecule `CC1NOCc2ccccc21` (stereo not given) gave a pKa (basic group) of 3.7. `Cc1ccccc1/N=C/N(C)C`: the pKa (basic group) came to 8.27.

Consider `Cc1ccccc1-c1nnn[nH]1`, for which, under “acidic group”, the pKa is 4.09.
